One data set can be described thus: Solubility of Compound 1. In kind it is physicochemical. The note with it: compared to the low dose / proposed dose levels.
The subject of the next data set is HG3. Put plainly: Flow cytometry viability/apoptosis assay, HG3. It counts as cell-based. The note with it: HG-3; HG3, CLL; 120 hours; read-out: % Viable Cells IC50. The procedure: (§1) Cell Proliferation and Viability Assay Using Hematological Cell Lines: The following exemplary anti-proliferative assay uses exemplary hematological cell lines in the following. The in vitro growth inhibitory activity of Compound 1 described herein was evaluated using a 384-well flow cytometry assay.
(§2) The cell lines were plated in 384-well flat bottom plates and assessed with increasing concentrations of compound ranging from 0.00015 to 10 μM or dimethyl sulfoxide (DMSO) control. The final concentration of DMSO was 0.1% (v/v). Following the addition of Compound 1 or DMSO and incubation for 120 hours, cell number and cell death were analyzed by flow cytometry (Attune®, Thermo Fisher) using Annexin V and the live-cell impermeant DNA dye, DRAQ7. […]
(§3) Flow cytometry data analysis was then performed using the Flow Jo_v10 software to determine the number of viable cells (Annexin V and DRAQ7 double negative staining cells) and percentage of apoptotic cells (Annexin V positive cells) for each condition. […] The IC50 (50% inhibitory concentration) and Emax (maximum efficacy achieved) values were then calculated by performing nonlinear regression curve fitting using log(inhibitor) vs. normalized response—variable slope analysis on GraphPad Prism 7.03. Area under the curve (AUC) was calculated by performing area under curve analysis on GraphPad Prism 7.03. […]

In another data set the test system is ROS-50. The data set is described as follows: Flow cytometry viability/apoptosis assay, ROS-50. It counts as cell-based. The note with it: ROS-50, DLBCL; 120 hours; read-out: % Viable Cells IC50. How it is done:
as §1, §2, §3

The next data set has as its system DB. The data set is described as follows: Flow cytometry viability/apoptosis assay, DB. It counts as cell-based. The note with it: Homo sapiens, DLBCL GCB, 120 hours, read-out: % Viable Cells IC50. The procedure: as §1, §2, §3
Another data set concerns hematological cell lines. Put plainly: Cell Proliferation and Viability Assay Using Hematological Cell Lines (whole panel). In kind it is cell-based. The note with it: panel of hematological cell lines, 0.00015 to 10 μM, 5 days. How it is done:
as §1, §2, §3

The next data set deals with Mec1. Put plainly: Flow cytometry viability/apoptosis assay, Mec1. In kind it is cell-based. The note with it: Homo sapiens; Mec1, CLL; 120 hours; read-out: % Viable Cells IC50. The procedure: as §1, §2, §3
For another data set, the system named is CII. The data set is described as follows: Flow cytometry viability/apoptosis assay, CII. In kind it is cell-based. The note with it: CLL, 120 hours, read-out: % Viable Cells IC50. How it is done: as §1, §2, §3
In a further data set the test system is WA-OSEL. Put plainly: Flow cytometry viability/apoptosis assay, WA-OSEL. It counts as cell-based. The note with it: CLL, 120 hours, read-out: % Viable Cells IC50. How it is done: as §1, §2, §3
The test system of the next data set is OCI-LY3. Put plainly: Flow cytometry viability/apoptosis assay, OCI-LY3. It counts as cell-based. The note with it: Homo sapiens; OCI-LY3, DLBCL ABC; 120 hours; read-out: % Viable Cells IC50. How it is done:
as §1, §2, §3

In another data set the test system is PGA1. Put plainly: Flow cytometry viability/apoptosis assay, PGA1. In kind it is cell-based. The note with it: PGA1, CLL; 120 hours; read-out: % Viable Cells IC50. The procedure:
as §1, §2, §3

As to `O=C1CC[C@H](N2C(=O)c3cccc(NCc4ccc(CN5CC(N6CCOCC6)C5)cc4F)c3C2=O)C(=O)N1` [Compound 1, (S)-2-(2,6-dioxopiperidin-3-yl)-4-((2-fluoro-4-((3-morpholinoazetidin-1-yl)methyl)benzyl)amino)isoindoline-1,3-dione], the solubility result in the data set “Solubility of Compound 1” is on record as “relatively high”. Besides, the IC50 in the data set on HG3, in the data set with ROS-50, in the data set with DB, in the data set with Mec1, in the data set on CII and in the data set on WA-OSEL was ≥ 10 µM in each case. Moreover, the IC50 in the data set with OCI-LY3 and in the data set on PGA1 was ≥ 10 µM throughout. The “antiproliferative activity and/or apoptotic effects” value with hematological cell lines is “antiproliferative activity and/or apoptotic effects in almost all hematological cell lines tested”.
As to `Cl.O=C1CC[C@H](N2C(=O)c3cccc(NCc4ccc(CN5CC(N6CCOCC6)C5)cc4F)c3C2=O)C(=O)N1` [Compound 1 HC, salt], the solubility entry in “Solubility of Compound 1” was “relatively high”.
